According to patent publication US8435549B2, “Halogen alkoxy spirocyclic tetramic and tetronic acid derivatives” (Bayer Cropscience AG, priority 2007, dated 2013):

Assays:
[1] = Determination of the log P values (LC/MS, HCOOH method); format: physicochemical; conditions: for log P: HPLC reversed-phase C18, HCOOH method; for chromatographic logP: reversed-phase C18 HPLC column, acidic range (pH 3.4)
Procedure: Determination of the Log P Values (LC/MS, HCOOH Method):
The log P values given in the tables were determined in accordance with EEC Directive 79/831 Annex V.A8 by HPLC (High Performance Liquid Chromatography) using a reversed-phase column (C 18). Temperature: 55° C.
Mobile phases for determination in the acidic range (pH 3.4):
Mobile phase A: acetonitrile+1 ml formic acid/liter. Mobile phase B: water+0.9 ml formic acid/liter. Gradient: from 10% mobile phase A/90% mobile phase B to 95% mobile phase A/5% mobile phase B over 4.25 min. Calibration was carried out using unbranched alkan-2-ones (having 3 to 16 carbon atoms) with known log P values (determination of the log P values by the retention times using linear interpolation between two successive alkanones). The lambda max values were determined in the maxima of the chromatographic signals using the UV spectra from 200 nm to 400 nm.

[2] = tested on: cotton aphid (Aphis gossypii); assay: Enhancement of activity by ammonium/phosphonium salts in combination with penetrants, Aphis gossypii test; format: in vivo
Procedure: To produce a suitable preparation of active compound, 1 part by weight of active compound is mixed with the stated amounts of solvent and emulsifier, and the concentrate is diluted with emulsifier-containing water to the desired concentration. For application with ammonium or phosphonium salts and penetrants (rapeseed oil methyl esters 500 EW) these are added to the spray liquor in each case in a concentration of 1000 ppm.
Cotton plants (Gossypium hirsutum) which are heavily infested by the cotton aphid (Aphis gossypii) are treated by spraying to runoff point with the active compound preparation of the desired concentration.
After the desired period of time, the kill in % is determined. 100% means that all the aphids have been killed; 0% means that none of the aphids have been killed.

crop plants = assay: Use of safeners: plant compatibility of test substances in crop plants; format: in vivo
Procedure: • Seeds of monocotyledonous and dicotyledonous weed and crop plants are placed in sandy loam in wood fiber pots, covered with soil and cultivated in a greenhouse under good growth conditions. 2 to 3 weeks after sowing, the test plants are treated at the one-leaf stage. The test compounds, formulated as wettable powders (WP) are then, with a water application rate of 600 l/ha (converted), with 0.2% of wetting agent added, sprayed at various dosages onto the green parts of the plants. After the test plants have been kept in the greenhouse under optimum growth conditions for about 3 weeks, the activity of the preparations is rated visually in comparison to untreated controls (herbicidal activity in percent: 100% activity=the plants have died, 0% activity=like control plants). • In addition to the compounds mentioned above, the following compounds show a post-emergence action of ≧80% against Echinocloa crus-galli, Lolium multiflorum and Setaria viridis at 80 g/ha: I-1-a-2, I-1-a-4, I-1-a-5, I-1-a-7, I-1-a-9, I-1-a-12, I-1-a-13, I-1-a-14, I-1-b-3.
Use of Safeners: • If it is additionally to be tested as to whether safeners can improve the plant compatibility of test substances in the case of crop plants, the following options are used for applying the safeners: • seeds of the crop plants are, before sowing, dressed with the safener substance (the amount of safener stated in percent, based on the weight of the seed) • before application of the test substances, the crop plants are sprayed with the safener at a certain application rate per hectare (usually 1 day before the application of the test substances) • the safener is applied together with the test substance as a tank mix (the amount of safener stated in g/ha or as a ratio, based on the herbicide).
• Application of the safener 1 day prior to the herbicide

[3] = α isomer of the α + β mixture, 55° C.
[4] = β isomer of the α + β mixture, 55° C.
[5] = compounds of formula (I-2-b), single isomer as labelled
[6] = single isomer isolated by preparative HPLC (formula I-2-a)

COc1cc(C)cc(C)c1C1=C(O)C2(CCC(OCC(F)(F)F)CC2)OC1=O (mixture of isomers) [Example I-2-a-11]
log P [1, 3]: α 3.07
log P [1, 4]: β 2.94

Cc1ccc(-c2ccc(F)cc2)c(C)c1C1=C(O)C2(CCC(OCC(F)(F)F)CC2)NC1=O (single isomer, unassigned) [Example I-1-a-3]
Kill rate/% after 6 days ([2]; 4 ppm, +AS (1000 ppm)): 0%
Kill rate/% after 6 days ([2]; 4 ppm, +RME (1000 ppm)): 5%
Kill rate/% after 6 days ([2]; 4 ppm, +RME + AS (1000 ppm each)): 25%
Kill rate/% after 6 days ([2]; 4 ppm, no additive): 0%
Kill rate/% after 6 days ([2]; 20 ppm, +AS (1000 ppm)): 5%
Kill rate/% after 6 days ([2]; 20 ppm, +RME (1000 ppm)): 10%
Kill rate/% after 6 days ([2]; 20 ppm, +RME + AS (1000 ppm each)): 90%
Kill rate/% after 6 days ([2]; 20 ppm, no additive): 25%

Cc1ccc(C)c(C2=C(OC(=O)C(C)C)C3(CCC(OCC(F)(F)F)CC3)OC2=O)c1 (single isomer, unassigned) [Example I-2-b-5]
log P [1, 5]: 4.88

Cc1ccc(-c2ccc(Cl)cc2)cc1C1=C(OC(=O)C(C)C)C2(CCC(OCC(F)(F)F)CC2)OC1=O (centres unmarked) [Example I-2-b-14]
log P [1, 5]: 5.55

CCc1cc(-c2ccc(Cl)cc2)cc(C)c1C1=C(O)C2(CCC(OCC(F)(F)F)CC2)OC1=O (mixture of isomers) [Example I-2-a-12]
log P [1, 3]: α 4.51
log P [1, 4]: β 4.36

Cc1cc(C)c(C2=C(O)C3(CCC(OCC(F)(F)F)CC3)OC2=O)c(C)c1 (centres unmarked) [Example I-2-a-10]
log P [1, 6]: 3.16

Cc1ccc(-c2ccc(Cl)cc2)c(C)c1C1=C(OC(=O)C(C)C)C2(CCC(OCC(F)(F)F)CC2)OC1=O (centres unmarked) [Example I-2-b-12]
log P [1, 5]: 5.83

CCc1cc(C)cc(C)c1C1=C(OC(=O)C(C)C)[C@]2(CC[C@@H](OCC(F)(F)F)CC2)OC1=O [Example I-2-b-2]
chromatographic logP ([1]; pH 3.4, HPLC): 5.4

Cc1cc(Cl)cc(C)c1C1=C(O)C2(CCC(OCC(F)(F)F)CC2)OC1=O (mixture of isomers) [Example I-2-a-8]
log P [1, 3]: 3.39
log P [1, 4]: 3.25

CCc1cc(C)cc(CC)c1C1=C(OC(=O)C(C)C)[C@]2(CC[C@H](OCC(F)(F)F)CC2)OC1=O [Example I-2-b-1]
chromatographic logP ([1]; pH 3.4, HPLC): 5.69

Cc1cc(Cl)cc(C)c1C1=C(OC(=O)C(C)C)C2(CCC(OCC(F)(F)F)CC2)OC1=O (single isomer, unassigned) [Example I-2-b-15]
log P [1, 5]: 5.25

COc1cc(C)cc(C)c1C1=C(OC(=O)C(C)C)C2(CCC(OCC(F)(F)F)CC2)OC1=O (single isomer, unassigned) [I-2-b-19]
log P [1, 5]: 4.72

CCc1cc(-c2ccc(Cl)cc2)cc(C)c1C1=C(OC(=O)C(C)C)C2(CCC(OCC(F)(F)F)CC2)OC1=O (single isomer, unassigned) [I-2-b-17]
log P [1, 5]: 6.33

Cc1cc(Cl)cc(C)c1C1=C(OC(=O)C(C)C)C2(CCC(OCC(F)(F)F)CC2)OC1=O (single isomer, unassigned) [Example I-2-b-16]
log P [1, 5]: 4.97

CCc1cc(C)cc(C)c1C1=C(O)C2(CCC(OCC(F)(F)F)CC2)OC1=O (mixture of isomers) [Example I-2-a-5]
log P [1, 3]: α 3.54
log P [1, 4]: β 3.41

Cc1cc(C)c(C2=C(OC(=O)C(C)C)[C@]3(CC[C@H](OCC(F)(F)F)CC3)OC2=O)cc1C [Example I-2-b-7]
log P [1, 5]: 5.14

Cc1cc(C)c(C2=C(O)C3(CCC(OCC(F)(F)F)CC3)OC2=O)cc1C (mixture of isomers) [Example I-2-a-4]
log P [1, 3]: α 3.34
log P [1, 4]: β 3.20

CCc1cc(C)cc(C)c1C1=C(OC(=O)C(C)C)[C@]2(CC[C@H](OCC(F)(F)F)CC2)OC1=O [Example I-2-b-3]
log P [1, 5]: 5.44

Cc1cc(C)c(C2=C(O)C3(CCC(OCC(F)(F)F)CC3)OC2=O)c(C)c1 (centres unmarked) [Example I-2-a-9]
log P [1, 6]: 3.29

CCc1cc(-c2ccc(Cl)cc2)cc(C)c1C1=C(OC(=O)C(C)C)C2(CCC(OCC(F)(F)F)CC2)OC1=O (single isomer, unassigned) [I-2-b-18]
log P [1, 5]: 6.02

Cc1ccc(C)c(C2=C(OC(=O)C(C)C)C3(CCC(OCC(F)(F)F)CC3)OC2=O)c1 (single isomer, unassigned) [Example I-2-b-6]
log P [1, 5]: 4.62

CCc1cc(C)cc(C)c1C1=C(OC(=O)C(C)C)C2(CCC(OCC(F)(F)F)CC2)OC1=O (centres unmarked) [Example I-2-b-4]
log P [1, 5]: 5.15

Cc1cc(C)c(C2=C(OC(=O)C(C)C)[C@]3(CC[C@H](OCC(F)(F)F)CC3)OC2=O)c(C)c1 [Example I-2-b-9]
log P [1, 5]: 5.14

Cc1ccc(-c2ccc(Cl)cc2)cc1C1=C(OC(=O)C(C)C)[C@]2(CC[C@H](OCC(F)(F)F)CC2)OC1=O [Example I-2-b-13]
log P [1, 5]: 5.84

CCc1cc(C)cc(CC)c1C1=C(O)C2(CCC(OCC(F)(F)F)CC2)OC1=O (centres unmarked) [Example I-2-a-1]
chromatographic logP ([1]; pH 3.4, α isomer of the isomer mixture, HPLC): 3.78
chromatographic logP ([1]; pH 3.4, β isomer of the isomer mixture, HPLC): 3.64

Cc1ccc(C)c(C2=C(O)C3(CCC(OCC(F)(F)F)CC3)OC2=O)c1 (mixture of isomers) [Example I-2-a-2]
log P [1, 3]: α 3.10
log P [1, 4]: β 2.95

COc1cc(C)cc(C)c1C1=C(OC(=O)C(C)C)C2(CCC(OCC(F)(F)F)CC2)OC1=O (single isomer, unassigned) [I-2-b-20]
log P [1, 5]: 4.48

Cc1ccc(-c2ccc(Cl)cc2)c(C)c1C1=C(O)C2(CCC(OCC(F)(F)F)CC2)OC1=O (mixture of isomers) [Example I-2-a-6]
log P [1, 3]: α 4.29
log P [1, 4]: β 4.13

Cc1cc(C)c(C2=C(O)C3(CCC(OCC(F)(F)F)CC3)OC2=O)c(C)c1 (mixture of isomers) [Example I-2-a-3]
log P [1, 3]: α 3.31
log P [1, 4]: β 3.18

Cc1ccc(-c2ccc(Cl)cc2)c(C)c1C1=C(OC(=O)C(C)C)[C@]2(CC[C@H](OCC(F)(F)F)CC2)OC1=O [Example I-2-b-11]
log P [1, 5]: 6.11

CCc1cc(C)cc(Br)c1C1=C(O)C2(CCC(OCC(F)(F)F)CC2)NC1=O (single isomer, unassigned) [Example I-1-a-7]
10 days after application Summer wheat observed (%) (crop plants; 12.5 g a.i./ha): 40%
28 days after application Summer wheat observed (%) (crop plants; 12.5 g a.i./ha): 10%
10 days after application Summer wheat observed (%) (crop plants; 25 g a.i./ha): 50%
28 days after application Summer wheat observed (%) (crop plants; 25 g a.i./ha): 20%
10 days after application Summer wheat observed (%) (crop plants; 50 g a.i./ha): 60%
28 days after application Summer wheat observed (%) (crop plants; 50 g a.i./ha): 30%
10 days after application Summer wheat observed (%) (crop plants; 100 g a.i./ha): 60%
28 days after application Summer wheat observed (%) (crop plants; 100 g a.i./ha): 40%

Cc1cc(C)c(C2=C(OC(=O)C(C)C)C3(CCC(OCC(F)(F)F)CC3)OC2=O)cc1C (centres unmarked) [Example I-2-b-8]
log P [1, 5]: 4.87

Cc1cc(C)c(C2=C(OC(=O)C(C)C)C3(CCC(OCC(F)(F)F)CC3)OC2=O)c(C)c1 (centres unmarked) [Example I-2-b-10]
log P [1, 5]: 4.88
